Assay results as given in patent US8216786B2, “Genetic polymorphisms associated with cardiovascular diseases, methods of detection and uses thereof” (Celera Corporation, priority 2008, dated 2012).

System: individuals who have previously had an MI
Test: CARE trial: effect of pravastatin vs placebo on coronary events (endpt1, rmi) by SNP genotype subgroup
Assay type: in vivo, human
Conditions: for HR: pravastatin vs placebo
Method: In Tables 21-22, the column labeled “Endpoint” indicates whether the endpoint that was analyzed was the primary endpoint of the CARE study (a composite endpoint of fatal coronary event or nonfatal MI, and identified as “endpt1”) or a composite endpoint of confirmed fatal or nonfatal MI (identified as “rmi”). […] As used herein, the term “benefit” (with respect to a preventive or therapeutic drug treatment) is defined as achieving a reduced risk for a disease that the drug is intended to treat or prevent (e.g., CVD such as CHD, particularly MI, or hypertension) by administering the drug treatment, compared with the risk for the disease in the absence of receiving the drug treatment (or receiving a placebo in lieu of the drug treatment) for the same genotype. […] J. […] (1996) New England Journal of Medicine 335: 1001-1009. […] A well-documented MI was one of the enrollment criteria for entry into the CARE study. Patients were enrolled in the CARE trial from 80 participating study centers. […] For the study of CARE described in this Example and shown in Tables 21-22, two endpoints were investigated: the primary endpoint of CARE (a composite endpoint of fatal coronary event or nonfatal MI, and identified as “endpt1” in the Endpoint column of Tables 21-22) and a composite endpoint of confirmed fatal or nonfatal MI (identified as “rmi” in the Endpoint column of Tables 21-22). […] HR stands for Hazard Ratio, which is a concept similar to Odds Ratio (OR). The HR in event-free survival analysis is the effect of an explanatory variable on the hazard or risk of an event. […] In Table 21, p-interaction values were calculated. An interaction (or effect modification) is formed when a third variable modifies the relation between an exposure and outcome. […] Genotype and drug interaction is present when the effect of statins (incidence rate of disease in statin-treated group, as compared to placebo) differs in patients with different genotypes.

[1] = endpt1, hCV8851065 rs9277343 HLA-DPA1, GC + CC
[2] = endpt1, hCV8851065 rs9277343 HLA-DPA1, GG
[3] = endpt1, hCV8851085 rs1042153 HLA-DPB1, AG + AA
[4] = endpt1, hCV8851085 rs1042153 HLA-DPB1, GG
[5] = endpt1, hCV8851095 rs1042335 HLA-DPB1, TC + CC
[6] = endpt1, hCV8851095 rs1042335 HLA-DPB1, TT
[7] = endpt1, hCV8895373 rs1503185 PTPRJ, AG + AA
[8] = endpt1, hCV8895373 rs1503185 PTPRJ, GG
[9] = endpt1, hCV8901525 rs861539 KLC1, AG + AA
[10] = endpt1, hCV8901525 rs861539 KLC1, GG
[11] = endpt1, hCV8921288 rs1060621 GAPDH, AA
[12] = endpt1, hCV8921288 rs1060621 GAPDH, CA + CC
[13] = endpt1, hCV9055799 rs3734311 IMPG1, CC
[14] = endpt1, hCV9055799 rs3734311 IMPG1, CG + GG
[15] = endpt1, hCV9077561 rs1801274 FCGR2A, AA
[16] = endpt1, hCV9077561 rs1801274 FCGR2A, GA + GG
[17] = endpt1, hCV9506149 rs1250259 FN1, AA
[18] = endpt1, hCV9506149 rs1250259 FN1, TA + TT
[19] = endpt1, hCV9596963 rs6115 SERPINA5, GA + AA
[20] = endpt1, hCV9596963 rs6115 SERPINA5, GG
[21] = endpt1, hCV9604851 rs1805002 CCKBR, AG + AA
[22] = endpt1, hCV9604851 rs1805002 CCKBR, GG
[23] = endpt1, hCV25630686 PSMB9, TC + TT
[24] = endpt1, hCV25631989 rs1135983 ATF6, CC
[25] = endpt1, hCV25631989 rs1135983 ATF6, TC + TT
[26] = endpt1, hCV25637309 rs3204849 CCRL2, AA
[27] = endpt1, hCV25637309 rs3204849 CCRL2, AT + TT
[28] = endpt1, hCV25644901 ITGA9, GA + GG
[29] = endpt1, hCV25651076 rs5743291 NOD2, AG + AA
[30] = endpt1, hCV25651076 rs5743291 NOD2, GG
[31] = endpt1, hCV25651174 rs9277356 HLA-DPB1, GA + GG
[32] = endpt1, hCV342590 rs6030 F5, Strata CC
[33] = endpt1, hCV342590 rs6030 F5, Strata CT
[34] = endpt1, hCV342590 rs6030 F5, Strata TT
[35] = endpt1, hCV435368 rs2812 PECAM1, Strata CC
[36] = endpt1, hCV435368 rs2812 PECAM1, Strata TC
[37] = endpt1, hCV435368 rs2812 PECAM1, Strata TT
[38] = endpt1, hCV3135085 rs10795446 CUBN, Strata GT
[39] = endpt1, hCV3135085 rs10795446 CUBN, Strata TT
[40] = endpt1, hCV3275199 rs2069885 IL9, Strata AA
[41] = endpt1, hCV3275199 rs2069885 IL9, Strata AG
[42] = endpt1, hCV3275199 rs2069885 IL9, Strata GG

CC[C@H](C)C(=O)O[C@H]1C[C@H](O)C=C2C=C[C@H](C)[C@H](CC[C@@H](O)C[C@@H](O)CC(=O)O)[C@H]21 [pravastatin]
NONEVENT (Pravastatin arm) (endpt1, hCV8851047 rs45614833 HLA-DPA1, CT + TT): 1229 | EVENTS (Pravastatin arm) [1]: 120 | NONEVENT (Pravastatin arm) [1]: 1198 | EVENTS (Pravastatin arm) [2]: 13 | NONEVENT (Pravastatin arm) [2]: 90 | EVENTS (Pravastatin arm) [3]: 58 | NONEVENT (Pravastatin arm) [3]: 491 | EVENTS (Pravastatin arm) [4]: 74 | NONEVENT (Pravastatin arm) [4]: 798 | EVENTS (Pravastatin arm) [5]: 126 | NONEVENT (Pravastatin arm) [5]: 1216 | EVENTS (Pravastatin arm) [6]: 7 | NONEVENT (Pravastatin arm) [6]: 40 | EVENTS (Pravastatin arm) [7]: 53 | NONEVENT (Pravastatin arm) [7]: 409 | EVENTS (Pravastatin arm) [8]: 80 | NONEVENT (Pravastatin arm) [8]: 882 | EVENTS (Pravastatin arm) [9]: 88 | NONEVENT (Pravastatin arm) [9]: 759 | EVENTS (Pravastatin arm) [10]: 45 | NONEVENT (Pravastatin arm) [10]: 504 | EVENTS (Pravastatin arm) [11]: 97 | NONEVENT (Pravastatin arm) [11]: 815 | EVENTS (Pravastatin arm) [12]: 36 | NONEVENT (Pravastatin arm) [12]: 440 | EVENTS (Pravastatin arm) [13]: 15 | NONEVENT (Pravastatin arm) [13]: 247 | EVENTS (Pravastatin arm) [14]: 117 | NONEVENT (Pravastatin arm) [14]: 1040 | EVENTS (Pravastatin arm) [15]: 36 | NONEVENT (Pravastatin arm) [15]: 300 | EVENTS (Pravastatin arm) [16]: 96 | NONEVENT (Pravastatin arm) [16]: 985 | EVENTS (Pravastatin arm) (endpt1, hCV9494470, GG): 100 | NONEVENT (Pravastatin arm) (endpt1, hCV9494470, GG): 884 | EVENTS (Pravastatin arm) (endpt1, hCV9494470, TG + TT): 33 | NONEVENT (Pravastatin arm) (endpt1, hCV9494470, TG + TT): 407 | EVENTS (Pravastatin arm) [17]: 64 | NONEVENT (Pravastatin arm) [17]: 678 | EVENTS (Pravastatin arm) [18]: 69 | NONEVENT (Pravastatin arm) [18]: 611 | EVENTS (Pravastatin arm) [19]: 106 | NONEVENT (Pravastatin arm) [19]: 1147 | EVENTS (Pravastatin arm) [20]: 26 | NONEVENT (Pravastatin arm) [20]: 136 | EVENTS (Pravastatin arm) [21]: 19 | NONEVENT (Pravastatin arm) [21]: 113 | EVENTS (Pravastatin arm) [22]: 114 | NONEVENT (Pravastatin arm) [22]: 1178 | EVENTS (Pravastatin arm) (endpt1, hCV25630686 PSMB9, CC): 128 | NONEVENT (Pravastatin arm) (endpt1, hCV25630686 PSMB9, CC): 1206 | EVENTS (Pravastatin arm) [23]: 5 | NONEVENT (Pravastatin arm) [23]: 85 | EVENTS (Pravastatin arm) [24]: 107 | NONEVENT (Pravastatin arm) [24]: 1044 | EVENTS (Pravastatin arm) [25]: 26 | NONEVENT (Pravastatin arm) [25]: 198 | EVENTS (Pravastatin arm) [26]: 24 | NONEVENT (Pravastatin arm) [26]: 184 | EVENTS (Pravastatin arm) [27]: 109 | NONEVENT (Pravastatin arm) [27]: 1107 | EVENTS (Pravastatin arm) (endpt1, hCV25640504, TC + CC): 113 | NONEVENT (Pravastatin arm) (endpt1, hCV25640504, TC + CC): 1035 | EVENTS (Pravastatin arm) (endpt1, hCV25640504, TT): 12 | NONEVENT (Pravastatin arm) (endpt1, hCV25640504, TT): 194 | EVENTS (Pravastatin arm) (endpt1, hCV25644901 ITGA9, AA): 124 | NONEVENT (Pravastatin arm) (endpt1, hCV25644901 ITGA9, AA): 1171 | EVENTS (Pravastatin arm) [28]: 9 | NONEVENT (Pravastatin arm) [28]: 120 | EVENTS (Pravastatin arm) [29]: 28 | NONEVENT (Pravastatin arm) [29]: 217 | EVENTS (Pravastatin arm) [30]: 104 | NONEVENT (Pravastatin arm) [30]: 1068 | EVENTS (Pravastatin arm) [31]: 76 | NONEVENT (Pravastatin arm) [31]: 641 | EVENTS (Pravastatin arm) [32]: 15 | NONEVENT (Pravastatin arm) [32]: 123 | EVENTS (Pravastatin arm) [33]: 44 | NONEVENT (Pravastatin arm) [33]: 553 | EVENTS (Pravastatin arm) [34]: 74 | NONEVENT (Pravastatin arm) [34]: 613 | EVENTS (Pravastatin arm) [35]: 37 | NONEVENT (Pravastatin arm) [35]: 369 | EVENTS (Pravastatin arm) [36]: 56 | NONEVENT (Pravastatin arm) [36]: 649 | EVENTS (Pravastatin arm) [37]: 40 | NONEVENT (Pravastatin arm) [37]: 272 | EVENTS (Pravastatin arm) [38]: 64 | NONEVENT (Pravastatin arm) [38]: 554 | EVENTS (Pravastatin arm) [39]: 57 | NONEVENT (Pravastatin arm) [39]: 575 | EVENTS (Pravastatin arm) [40]: 5 | NONEVENT (Pravastatin arm) [40]: 28 | EVENTS (Pravastatin arm) [41]: 18 | NONEVENT (Pravastatin arm) [41]: 310 | EVENTS (Pravastatin arm) [42]: 109 | NONEVENT (Pravastatin arm) [42]: 947 | HR (hCV16189421, first genotype stratum listed (strata and endpoint not given)): 1 | HR (hCV16189421, second genotype stratum listed (strata and endpoint not given)): 0.67 | HR (hCV25630686, first genotype stratum listed (strata and endpoint not given)): 0.35 | HR (hCV25630686, second genotype stratum listed (strata and endpoint not given)): 0.81 | HR (hCV25631989, first genotype stratum listed (strata and endpoint not given)): 1.83 | HR (hCV25631989, second genotype stratum listed (strata and endpoint not given)): 0.72 | HR (hCV25644901, first genotype stratum listed (strata and endpoint not given)): 0.32 | HR (hCV25644901, second genotype stratum listed (strata and endpoint not given)): 0.86
